In test [1] the target is T1, human placental aromatase (Homo sapiens, UniProt P11511).
T1 construct: isolated from the microsomal fraction of human placental tissue; from tissue; host or cells: human placenta, microsomal fraction
T1 sequence (P11511 1-503): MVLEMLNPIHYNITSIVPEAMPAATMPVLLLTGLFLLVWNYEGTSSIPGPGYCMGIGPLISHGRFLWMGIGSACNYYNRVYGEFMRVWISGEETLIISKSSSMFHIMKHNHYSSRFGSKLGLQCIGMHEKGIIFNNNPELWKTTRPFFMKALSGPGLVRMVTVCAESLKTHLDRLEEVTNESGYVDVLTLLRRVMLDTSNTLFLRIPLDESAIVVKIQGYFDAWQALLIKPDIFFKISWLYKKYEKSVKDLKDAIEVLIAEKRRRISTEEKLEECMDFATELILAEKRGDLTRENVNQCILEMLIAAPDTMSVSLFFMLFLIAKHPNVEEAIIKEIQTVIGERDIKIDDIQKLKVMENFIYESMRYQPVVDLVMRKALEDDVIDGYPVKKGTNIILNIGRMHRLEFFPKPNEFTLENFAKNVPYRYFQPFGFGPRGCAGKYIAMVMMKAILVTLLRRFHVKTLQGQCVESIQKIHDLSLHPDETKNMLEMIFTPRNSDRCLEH
As to the kind of experiment: Inhibition of human placental aromatase in vitro (3H2O release from labelled androstenedione, microsomal fraction). Type of test: biochemical. The note with it: for Relative potency: versus aminoglutethimide (1 by definition). How it is done:
The assay of the aromatase inhibition in vitro was carried out as follows: the enzyme system was isolated from the microsomal fraction of human placental tissue according to standard procedure.
All incubations were carried out in a shaking water bath at 37° C. in air in 10 mM potassium phosphate buffer, pH 7.5, which contained 100 mM Kcl, 1 mM EDTA and 1 mM dithiothreitol. The experiments were carried out in 1 ml incubation volume containing 50 nM 4-[^3 H]androstenedione, various concentrations of the inhibitors. 100 μm NADPH and 0.05 mg of microsomal proteins. After 15 minutes of incubation the reaction was stopped by the addition of chloroform (5 ml).
After centrifugation at 1500 xg for 5 minutes, aliquots (0.5 ml) were removed from the water phase for determination of ^3 H2 O formed.

For another test, the system named is aromatase. The note with it: reported in literature; cited from earlier work.

Results on three compounds are retold here after patent publication US4847295A, “Cycloalkyl-substituted 4-aminophenyl halo derivatives and process for their preparation” (Farmitalia Carlo Erba S.r.l., priority 1987, dated 1989).

Usually IC50 stands for the point on the concentration scale where inhibition reaches its midpoint. A low value points to greater potency.

The compound `Nc1ccc(C2CCCCC2)cc1` [4-cyclohexylaniline] returned a Relative potency in test [1] of 1.7. In addition, in the test with aromatase, the “aromatase-inhibiting action (in words)” value is listed as “more or less selective aromatase-inhibiting action”.

As to `Nc1ccc(C(C(=O)NC2CCCCC2)C(F)(F)F)cc1` (racemic) [FCE 25331, N-cyclohexyl-2-(4'-aminophenyl)-3,3,3-trifluoropropanamide], in test [1] (human placental microsomes, 50 nM 4-[3H]androstenedione, 100 μm NADPH, pH 7.5, 37° C., 15 min), the IC50 worked out at 0.33 µM. Also, in test [1], the Relative potency is listed as 6.4. For the compound `CCC1(c2ccncc2)CCC(=O)NC1=O` (centres unmarked) [4-pyridyl-3-ethyl-2,6-piperidinedione], the “aromatase-inhibiting action (in words)” value in the test on aromatase is “more or less selective aromatase-inhibiting action”.
